From the CheMixHub viscosity set
± gives the uncertainty stated by the source.

Assay: xn = mol fraction of the nth substance listed

CC(=O)O + CC(C)O
viscosity [mPa·s], 101 kPa
Conditions | x1 = 0.00598 | x1 = 0.02919 | x1 = 0.04037 | x1 = 0.0567 | x1 = 0.1073 | x1 = 0.1528 | x1 = 0.1938 | x1 = 0.2308
298.15 K | 2.633 ± 0.53 | 2.564 ± 0.52 | 2.503 ± 0.51 | 2.435 ± 0.49 | 2.286 ± 0.46 | 2.221 ± 0.45 | 2.133 ± 0.43 | 2.058 ± 0.41
308.15 K | 1.962 ± 0.4 | 1.906 ± 0.38 | 1.877 ± 0.38 | 1.843 ± 0.37 | 1.75 ± 0.35 | 1.696 ± 0.34 | 1.651 ± 0.33 | 1.621 ± 0.33
318.15 K | 1.521 ± 0.31 | 1.491 ± 0.3 | 1.474 ± 0.3 | 1.454 ± 0.29 | 1.4 ± 0.28 | 1.363 ± 0.28 | 1.33 ± 0.27 | 1.306 ± 0.26

COCC(C)OCC(C)OC (stereo unspecified) + CCCO
298.15 K, 101 kPa
Conditions | viscosity [mPa·s]
x1 = 0.0008 | 1.955 ± 0.015
x1 = 0.0409 | 1.775 ± 0.015

CCC[n+]1ccn(C)c1.N[C@@H](CO)C(=O)[O-] + O
Conditions | viscosity [mPa·s]
308.15 K, 100 kPa, x2 = 0.0574 | 996.5 ± 100

CCCC[n+]1ccn(C)c1.N[C@@H](CCC(=O)O)C(=O)[O-] + CO
Conditions | viscosity [mPa·s]
313.15 K, 101 kPa, x1 = 0.7005 | 19.95 ± 1.9

C[Si]1(C)O[Si](C)(C)O[Si](C)(C)O[Si](C)(C)O1 + CCCCCCCCCCCCC
viscosity [mPa·s], 103 kPa
Conditions | 298.15 K | 308.15 K | 318.15 K
x1 = 0.05 | 1.619 ± 0.042 | 1.351 ± 0.042 | 1.145 ± 0.041
x1 = 0.1 | 1.61 ± 0.042 | 1.343 ± 0.042 | 1.139 ± 0.041
x1 = 0.15 | 1.604 ± 0.042 | 1.339 ± 0.042 | 1.137 ± 0.041
x1 = 0.2 | 1.602 ± 0.042 | 1.338 ± 0.042 | 1.134 ± 0.041
x1 = 0.2501 | 1.604 ± 0.042 | 1.346 ± 0.042 | 1.136 ± 0.041
x1 = 0.3 | 1.608 ± 0.042 | 1.342 ± 0.042 | 1.139 ± 0.041
x1 = 0.35 | 1.614 ± 0.042 | 1.345 ± 0.042 | 1.143 ± 0.041
x1 = 0.4 | 1.62 ± 0.042 | 1.355 ± 0.042 | 1.149 ± 0.041
x1 = 0.45 | 1.636 ± 0.042 | 1.366 ± 0.042 | 1.159 ± 0.041
x1 = 0.5 | 1.649 ± 0.042 | 1.375 ± 0.042 | 1.167 ± 0.041
x1 = 0.55 | 1.667 ± 0.042 | 1.389 ± 0.042 | 1.177 ± 0.041
x1 = 0.6 | 1.69 ± 0.042 | 1.406 ± 0.042 | 1.191 ± 0.041
x1 = 0.65 | 1.715 ± 0.043 | 1.43 ± 0.042 | 1.209 ± 0.041
x1 = 0.7 | 1.751 ± 0.043 | 1.458 ± 0.042 | 1.24 ± 0.041
x1 = 0.75 | 1.794 ± 0.043 | 1.498 ± 0.042 | 1.269 ± 0.041
x1 = 0.8 | 1.826 ± 0.043 | 1.53 ± 0.042 | 1.293 ± 0.042
x1 = 0.85 | 1.89 ± 0.043 | 1.572 ± 0.042 | 1.328 ± 0.042
x1 = 0.9 | 1.941 ± 0.043 | 1.62 ± 0.042 | 1.365 ± 0.042
x1 = 0.95 | 1.996 ± 0.044 | 1.659 ± 0.043 | 1.405 ± 0.042

CCNc1ccccc1 + CCC(=O)c1ccccc1
303.15 K, 100 kPa
Conditions | viscosity [mPa·s]
x1 = 0.0789 | 1.524 ± 0.02
x1 = 0.1541 | 1.537 ± 0.02
x1 = 0.2249 | 1.55 ± 0.02
x1 = 0.3002 | 1.565 ± 0.02
x1 = 0.3862 | 1.581 ± 0.021
x1 = 0.4651 | 1.598 ± 0.021
x1 = 0.5244 | 1.612 ± 0.021
x1 = 0.6049 | 1.631 ± 0.021
x1 = 0.6891 | 1.653 ± 0.021
x1 = 0.7354 | 1.666 ± 0.021
x1 = 0.8005 | 1.683 ± 0.022
x1 = 0.8523 | 1.699 ± 0.022
x1 = 0.9099 | 1.716 ± 0.022

CCNc1ccccc1 + CCC(C)O
viscosity [mPa·s], 101 kPa
Conditions | 303.15 K | 308.15 K
x1 = 0.0785 | 2.682 ± 0.03 | 2.105 ± 0.028
x1 = 0.1325 | 2.642 ± 0.029 | 2.089 ± 0.027
x1 = 0.1965 | 2.596 ± 0.028 | 2.071 ± 0.026
x1 = 0.2564 | 2.55 ± 0.028 | 2.052 ± 0.025
x1 = 0.3214 | 2.498 ± 0.026 | 2.028 ± 0.024
x1 = 0.3965 | 2.433 ± 0.025 | 1.995 ± 0.023
x1 = 0.4562 | 2.378 ± 0.024 | 1.964 ± 0.022
x1 = 0.5124 | 2.322 ± 0.023 | 1.932 ± 0.022
x1 = 0.5895 | 2.24 ± 0.022 | 1.882 ± 0.02
x1 = 0.6547 | 2.164 ± 0.021 | 1.835 ± 0.019
x1 = 0.7325 | 2.07 ± 0.02 | 1.773 ± 0.018
x1 = 0.8025 | 1.983 ± 0.019 | 1.714 ± 0.017
x1 = 0.8745 | 1.894 ± 0.018 | 1.653 ± 0.016

ClCCl + CCCCn1cc[n+](C)c1.F[B-](F)(F)F
Conditions | viscosity [mPa·s]
298.15 K, 101 kPa, x1 = 0.1 | 84.5 ± 18

C1CCC2=[NH+]CCCN2CC1.c1c[n-]cn1 + O
Conditions | viscosity [mPa·s]
298.15 K, 100 kPa, x1 = 0.2994 | 42.65 ± 0.97

ClCCl + CCCCn1cc[n+](C)c1.F[P-](F)(F)(F)(F)F
298.15 K, 101 kPa
Conditions | viscosity [mPa·s]
x1 = 0.2451 | 88.7 ± 21
x1 = 0.6462 | 9.51 ± 1.1

ClCCl + CCCCC
298.15 K, 101 kPa
Conditions | viscosity [mPa·s]
x2 = 0.05 | 0.403 ± 0.006
x2 = 0.1 | 0.384 ± 0.006
x2 = 0.1023 | 0.379 ± 0.011
x2 = 0.15 | 0.366 ± 0.006
x2 = 0.1992 | 0.345 ± 0.01
x2 = 0.2 | 0.348 ± 0.006
x2 = 0.25 | 0.332 ± 0.006
x2 = 0.3 | 0.317 ± 0.007
x2 = 0.3043 | 0.314 ± 0.01
x2 = 0.35 | 0.303 ± 0.007
x2 = 0.4 | 0.29 ± 0.007
x2 = 0.4032 | 0.29 ± 0.01
x2 = 0.45 | 0.28 ± 0.007
x2 = 0.5 | 0.27 ± 0.007
x2 = 0.5097 | 0.269 ± 0.01
x2 = 0.55 | 0.262 ± 0.007
x2 = 0.6 | 0.255 ± 0.007
x2 = 0.603 | 0.254 ± 0.01
x2 = 0.65 | 0.248 ± 0.007
x2 = 0.6984 | 0.242 ± 0.01
x2 = 0.7 | 0.242 ± 0.007
x2 = 0.75 | 0.237 ± 0.007
x2 = 0.7991 | 0.231 ± 0.01
x2 = 0.8 | 0.232 ± 0.007
x2 = 0.85 | 0.227 ± 0.007
x2 = 0.8858 | 0.224 ± 0.01
x2 = 0.9 | 0.222 ± 0.007
x2 = 0.9189 | 0.221 ± 0.01
x2 = 0.95 | 0.218 ± 0.007

ClCCl + Cc1ccc(C)cc1
101 kPa
Conditions | viscosity [mPa·s]
293.15 K, x1 = 0.2949 | 0.59 ± 0.015
293.15 K, x1 = 0.4409 | 0.561 ± 0.015
293.15 K, x1 = 0.5522 | 0.535 ± 0.014
293.15 K, x1 = 0.609 | 0.522 ± 0.014
293.15 K, x1 = 0.6936 | 0.504 ± 0.013
293.15 K, x1 = 0.7459 | 0.492 ± 0.013
293.15 K, x1 = 0.8125 | 0.476 ± 0.012
293.15 K, x1 = 0.8558 | 0.468 ± 0.012
298.15 K, x1 = 0.2347 | 0.568 ± 0.015
298.15 K, x1 = 0.3846 | 0.541 ± 0.014
298.15 K, x1 = 0.4518 | 0.529 ± 0.014
298.15 K, x1 = 0.5662 | 0.504 ± 0.013
298.15 K, x1 = 0.6375 | 0.488 ± 0.013
298.15 K, x1 = 0.6972 | 0.476 ± 0.012
298.15 K, x1 = 0.7342 | 0.467 ± 0.012
298.15 K, x1 = 0.7892 | 0.457 ± 0.012
298.15 K, x1 = 0.8376 | 0.451 ± 0.012
303.15 K, x1 = 0.2286 | 0.539 ± 0.014
303.15 K, x1 = 0.3627 | 0.515 ± 0.013
303.15 K, x1 = 0.4362 | 0.502 ± 0.013
303.15 K, x1 = 0.5371 | 0.483 ± 0.013
303.15 K, x1 = 0.624 | 0.463 ± 0.012
303.15 K, x1 = 0.6948 | 0.448 ± 0.012
303.15 K, x1 = 0.7643 | 0.433 ± 0.011
303.15 K, x1 = 0.818 | 0.427 ± 0.011

ClCCCl + C1COCCO1
303.15 K, 101.33 kPa
Conditions | viscosity [mPa·s]
x2 = 0.0462 | 0.7468 ± 0.0055
x2 = 0.1984 | 0.7909 ± 0.0058
x2 = 0.2786 | 0.8101 ± 0.0059
x2 = 0.3663 | 0.8307 ± 0.006
x2 = 0.4515 | 0.8512 ± 0.0062
x2 = 0.567 | 0.8832 ± 0.0064
x2 = 0.6362 | 0.9068 ± 0.0066
x2 = 0.7673 | 0.9595 ± 0.0069
x2 = 0.8428 | 0.996 ± 0.0072
x2 = 0.9185 | 1.037 ± 0.0075

ClCCl + C1COCCO1
viscosity [mPa·s], 101 kPa
Conditions | x1 = 0.117 | x1 = 0.1716 | x1 = 0.2883 | x1 = 0.4089 | x1 = 0.4973 | x1 = 0.5905 | x1 = 0.7057 | x1 = 0.7928 | x1 = 0.902
293.15 K | 1.112 ± 0.011 | 1.045 ± 0.01 | 0.946 ± 0.009 | 0.841 ± 0.008 | 0.76 ± 0.008 | 0.691 ± 0.007 | 0.612 ± 0.006 | 0.553 ± 0.006 | 0.485 ± 0.005
298.15 K | 1.027 ± 0.01 | 0.97 ± 0.01 | 0.882 ± 0.009 | 0.786 ± 0.008 | 0.713 ± 0.007 | 0.654 ± 0.007 | 0.579 ± 0.006 | 0.525 ± 0.005 | 0.46 ± 0.005

COCC(C)OCC(C)OC (stereo unspecified) + CCCCCO
Conditions | viscosity [mPa·s]
298.15 K, 101 kPa, x1 = 0.4941 | 1.345 ± 0.013
